# Assay results taken from patent US20240374667A1, “Prunella vulgaris extract and use thereof” (Clariant International Ltd, priority 2021, published 2024).
# Experiments:
# Assay type in all cases: cell-based
# [1] = tested on: hair follicles dermal papilla cells (HFDPCs); test: HFDPC proliferation under cortisone (WST test); conditions: cortisone 200 μM alone, 60 h
# Description: (§1) 2.3. Evaluation of the ability of PVE to counteract the glucocorticoids-induced decrease proliferation of hair follicles cells and to restore the VEGF secretion HFDP cells were maintained in Follicle Dermal Papilla Cell Growth Medium (C-26501, PromoCell, Heidelberg, Germany) at 37° C., under 5%, CO2. Cells at passage 4 were plated in 24 well plate at 2×10^4 cells/well. HFDPCs at 60% confluence was pretreated with 5, 10 or 20 ppm of PVE for 2 h, and subsequently treated with 200 μM cortisone. After incubation for 60 h, cell culture supernatant was recovered, and secreted VEGF was measured using ELISA kit. For the cell proliferation assay, the WST test was used (EZ-Cytox, DogenBio, Korea). Absorbance was measured at 450 nm wavelength using microplate spectrophotometry.
# [2] = tested on: hair follicles dermal papilla cells (HFDPCs); test: VEGF secretion by HFDPC under cortisone (ELISA); conditions: cortisone 200 μM alone, 60 h
# Description: as §1
# [3] = tested on: Human sensory neurons derived from hiPS cells; test: Oxytocin release by sensory neurons after cortisol or histamine challenge (ELISA); conditions: 2 h pre-incubation
# Description: Human sensory neurons are derived from hiPS cells (human induced Pluripotent Stem cells). hiPS cells are obtained by transfecting human fibroblasts cells. Cells were plated in 96 wells plates coated by a thin layer of Matrigel® (Corning; ref: 354277; batch: 9238002) in a differentiation medium (M1). Cells were incubated at 37° C. and 5% CO2 for 6 days and culture medium was changed every 2 days.
# After 9 days of differentiation, medium M1 was replaced by a maturation medium for human sensory neurons (M2). Cells were incubated at 37° C. and 5% CO2 for 6 days and culture medium was changed every 2 days. On day 18 of culture (24 hours of pre-incubation) or day 19 of culture (2 hours of pre-incubation,) the medium was removed, and fresh medium with PVE or reference compound β-endorphin (Bachem; ref: H-2700; batch: 1069755) was added. The following conditions were done: control medium, control medium containing PVE at 50, 100 or 150 ppm, control medium containing beta-endorphin at 10 μM. Culture was incubated for 24 hours at 37° C. and 5% of CO2. After 2 or 24 hours of incubation, the culture plates were stimulated by cortisol (Sigma Aldrich; ref: H0888; batch: SLBN5690V) or histamine, each at 10 μM (Tocris; ref: 3545; batch: 1A/18942). After 30 minutes of stimulation, supernatants were removed and stored at −80° C. […]
# [4] = tested on: Human sensory neurons derived from hiPS cells; test: CGRP release by sensory neurons after cortisol or histamine challenge (ELISA); conditions: for CGRP release by sensory neurons: stress molecule alone at 10 μM, 30 minutes of stimulation, vs control
# Description: Human sensory neurons are derived from hiPS cells (human induced Pluripotent Stem cells). hiPS cells are obtained by transfecting human fibroblasts cells. Cells were plated in 96 wells plates coated by a thin layer of Matrigel® (Corning; ref: 354277; batch: 9238002) in a differentiation medium (M1). Cells were incubated at 37° C. and 5% CO2 for 6 days and culture medium was changed every 2 days. After 9 days of differentiation, medium M1 was replaced by a maturation medium for human sensory neurons (M2). Cells were incubated at 37° C. and 5% CO2 for 6 days and culture medium was changed every 2 days. […] H-2700; batch: 1069755) was added. […] Culture was incubated for 24 hours at 37° C. and 5% of CO2. After 2 or 24 hours of incubation, the culture plates were stimulated by cortisol (Sigma Aldrich; ref: H0888; batch: SLB[…]) or histamine, each at 10 μM (Tocris; ref: 3545; batch: 1A/18942). After 30 minutes of stimulation, supernatants were removed and stored at -80° C. The amount of CGRP (antibodies-online; ref: abx257902; batch: E2001551F) released in supernatant after 30 minutes of stimulation were dosed by ELISA and compared to non-treated control. All values were expressed as mean +/-s.e.mean.
# Human hair follicles [5] = test: Hair follicle cell proliferation (Ki-67) and apoptosis (TUNEL) under cortisol; conditions: cortisol alone, five days, vs control
# Description: Human hair follicles were removed from a fresh scalp/face skin biopsy of a person. After the depilation, isolated follicles were selected by microscopic observation to select only ones in anagen phase. They were randomized and placed in supplemented William's E medium (Penicillin/Streptomycin, L-glutamine (2 mM), hydrocortisone (0.027 μM), sodium selenite (10 ng/ml), transferrin (10 μg/ml) and insulin (10 μg/ml) and indicated treatment (control, cortisol at 100 μM, PVE at 50 or 150 ppm in presence or not of cortisol). To perform immunostaining, slide deparaffinization was manually conducted using successive baths of solvent. Heat-induced epitope retrieval was performed using the Dako Envision Flex solution (Agilent, Santa Clara, US). Ki-67 (dilution 1/500).Cell proliferation was studied by Ki-67 immunostainings realized on paraffin sections (mouse monoclonal anti-Ki-67, Dako™ M7240, Santa Clara, US), The apoptosis was studied by using click-iT® Plus Alexa 488 TUNEL assay (ThermoScientific™, C10617, Waltham, MA, USA) following supplier instructions. After TUNEL assay and Ki67 antibody incubation, slices were incubated one hour at room temperature with an Alexa 568 coupled secondary antibody (A11004, Thermo Fischer Scientific™, Waltham, MA, USA). Nuclei counterstain was done using Hoechst (Invitrogen, ref H3570) at 1/5000 for 5 minutes at RT. Slides were mounted in aqueous medium.
# Human hair follicles [6] = test: Growth of isolated human hair follicles under cortisol (ex vivo culture, 5 days); conditions: cortisol 100 μM alone, day 1 to day 5
# Description: Human hair follicles were removed from a fresh scalp/face skin biopsy of a person. After the depilation, isolated follicles were selected by microscopic observation to select only ones in anagen phase. They were randomized and placed in supplemented William's E medium (Penicillin/Streptomycin, L-glutamine (2 mM), hydrocortisone (0.027 μM), sodium selenite (10 ng/ml), transferrin (10 μg/ml) and insulin (10 μg/ml) and indicated treatment (control, cortisol at 100 μM, PVE at 50 or 150 ppm in presence or not of cortisol). Follicles were cultured at 37° C. under 5% CO2 and a relative humidity >95%. Medium was changed at day 1 and 3. The growth of isolated follicles was monitored for 5 days by daily photography using a stereomicroscope device (Carl Zeiss, Microscopy, France). The length of each follicle was measured using ImageJ software.
# Human hair follicles [7] = test: Hair follicle pigmentation, Masson's Fontana staining; conditions: cortisol alone, 5 days
# Description: (§2) Human hair follicles were removed from a fresh scalp/face skin biopsy of a person. After the depilation, isolated follicles were selected by microscopic observation to select only ones in anagen phase. They were randomized and placed in supplemented William's E medium (Penicillin/Streptomycin, L-glutamine (2 mM), hydrocortisone (0.027 μM), sodium selenite (10 ng/ml), transferrin (10 μg/ml) and insulin (10 μg/ml) and indicated treatment (control, cortisol at 100 μM, PVE at 50 or 150 ppm in presence or not of cortisol). After overnight fixation in paraformaldehyde solution (MM France, Brignais, France), samples were dehydrated and impregnated in paraffin using a dehydration automat (STP120 ThermoScientific™ Waltham, MA, USA). The Then, sections of […] were mounted on Superfrost® Gold slides before proceeding to Masson's Fontana staining. This staining is used to visualize melanin granules. Melanin is a non-lipid pigment, brown to black, present physiologically in hair, eyes, and skin.
# Human hair follicles [8] = test: Hair follicle structure, HES staining; conditions: cortisol 100 μM alone, 5 days
# Description: as §2, with “USA).” for “USA). The”, “Hematoxylin-eosin-saffron (HES)” for “Masson's Fontana”, “Hematoxylin-eosin-saffron (HES)” for “This staining is used to visualize melanin granules. Melanin”, “trichromatic coloration using nuclear, cytoplasmic” for “non-lipid pigment, brown to black, present physiologically in hair, eyes,”, “matrix colorants, usually used for the visualization of tissues.” for “skin.”
compound,measurement,setting,value
C[C@]12CCC(=O)C=C1CC[C@@H]1[C@@H]2C(=O)C[C@@]2(C)[C@H]1CC[C@]2(O)C(=O)CO [cortisone],HFDPCs proliferation,[1],inhibits the HFDPCs proliferation
same,VEGF secretion by HFDPC,[2],reduced VEGF production
"β-endorphin (YGGFMTSEKSQTPLVTLFKNAIIKNAYKKGE; Beta-endorphin; UniProt P01189 237-267, looked up)",oxytocin release by sensory neurons,[3]; then cortisol 10 μM challenge,no effect on the oxytocin release
same,oxytocin release by sensory neurons,[3]; then histamine 10 μM challenge,no effect on the oxytocin release
same,CGRP release by sensory neurons (sensory neuron excitation),"[4]; 2 h or 24 h pre-incubation, PVE 50, 100 or 150 ppm, beta-endorphin 10 μM, then cortisol 10 μM, 30 minutes",reduce the neuronal excitation at level similar to the control condition
NCCc1c[nH]cn1 [histamine],CGRP release by sensory neurons,[4],strong increase of CGRP release
C[C@]12CCC(=O)C=C1CC[C@@H]1[C@@H]2[C@@H](O)C[C@@]2(C)[C@H]1CC[C@]2(O)C(=O)CO [cortisol],apoptosis of hair follicle cells (TUNEL),Human hair follicles [5],induces apoptosis in cells
same,hair follicle cell proliferation (Ki-67),Human hair follicles [5],reduced cell proliferation
same,hair follicle growth (length),Human hair follicles [6],strongly reduced
same,hair follicle pigmentation (melanin granules),Human hair follicles [7],almost all the melanin granules disappeared
same,"hair follicle structure (dermal sheath, hair matrix)",Human hair follicles [8],dramatically altered
same,CGRP release by sensory neurons,[4],strong increase of CGRP release
